Read-outs that look alike come from different tables or passages of the source.
Format: physicochemical
Details: for % assay/degs / Total degs / pH: T = 0
Method: For each condition, samples were staged at ambient and refrigerated conditions. Samples were analyzed for % assay/degs, appearance, reconstitution time, pH, and compared to T=0. The structures of the key impurities/metabolites are shown below.

## CCC(CC)COC(=O)[C@H](C)N[P@](=O)(OC[C@H]1O[C@@](C#N)(c2ccc3c(N)ncnn23)[C@H](O)[C@@H]1O)Oc1ccccc1 [Formula Ia, (S)-2-ethylbutyl 2-(((S)-(((2R,3S,4R,5R)-5-(4-aminopyrrolo[2,1-f][1,2,4]triazin-7-yl)-5-cyano-3,4-dihydroxytetrahydrofuran-2-yl)methoxy)(phenoxy)phosphoryl)amino)propanoate]
pH 1.8, 2-8° C., 2 h
  % assay/degs, difference from T = 0: 0.0%
  Total degs, difference from T = 0: 0.0%
  pH, difference from T = 0: 0.0
pH 1.8, 2-8° C., 3 h
  % assay/degs, difference from T = 0: −0.2%
  Total degs, difference from T = 0: 0.0%
  pH, difference from T = 0: 0.0
pH 1.8, 2-8° C., 8 h
  % assay/degs, difference from T = 0: −0.2%
  Total degs, difference from T = 0: 0.1%
  pH, difference from T = 0: 0.0
pH 1.8, 2-8° C., 24 h
  % assay/degs, difference from T = 0: −0.5%
  Total degs, difference from T = 0: 0.2%
  pH, difference from T = 0: 0.0
pH 1.8, 2-8° C., 48 h
  % assay/degs, difference from T = 0: −0.2%
  Total degs, difference from T = 0: 0.4%
  pH, difference from T = 0: 0.0
pH 1.8, Ambient, 1 h
  % assay/degs, difference from T = 0: −0.3%
  Total degs, difference from T = 0: 0.0%
  pH, difference from T = 0: 0.0
pH 1.8, Ambient, 2 h
  % assay/degs, difference from T = 0: −0.1%
  Total degs, difference from T = 0: 0.1%
  pH, difference from T = 0: 0.0
pH 1.8, Ambient, 3 h
  % assay/degs, difference from T = 0: −0.3%
  Total degs, difference from T = 0: 0.1%
  pH, difference from T = 0: 0.0
pH 1.8, Ambient, 8 h
  % assay/degs, difference from T = 0: −0.4%
  Total degs, difference from T = 0: 0.4%
  pH, difference from T = 0: 0.0
pH 1.8, Ambient, 24 h
  % assay/degs, difference from T = 0: −1.3%
  Total degs, difference from T = 0: 1.2%
  pH, difference from T = 0: 0.0
pH 1.8, Ambient, 48 h
  % assay/degs, difference from T = 0: −3.5%
  Total degs, difference from T = 0: 2.4%
  pH, difference from T = 0: 0.0
pH 1.8
  % assay/degs: 99.4%
  Total degs: 0.2%
  pH: 1.8
pH 2.0, 2-8° C., 2 h
  % assay/degs, difference from T = 0: 0.6%
  Total degs, difference from T = 0: 0.0%
  pH, difference from T = 0: 0.0
pH 2.0, 2-8° C., 3 h
  % assay/degs, difference from T = 0: 0.2%
  Total degs, difference from T = 0: 0.0%
  pH, difference from T = 0: 0.0
pH 2.0, 2-8° C., 8 h
  % assay/degs, difference from T = 0: −0.1%
  Total degs, difference from T = 0: 0.1%
  pH, difference from T = 0: 0.0
pH 2.0, 2-8° C., 24 h
  % assay/degs, difference from T = 0: 0.2%
  Total degs, difference from T = 0: 0.1%
  pH, difference from T = 0: 0.0
pH 2.0, 2-8° C., 48 h
  % assay/degs, difference from T = 0: −0.5%
  Total degs, difference from T = 0: 0.3%
  pH, difference from T = 0: 0.0
pH 2.0, Ambient, 1 h
  % assay/degs, difference from T = 0: 0.1%
  Total degs, difference from T = 0: 0.0%
  pH, difference from T = 0: 0.0
pH 2.0, Ambient, 2 h
  % assay/degs, difference from T = 0: −0.2%
  Total degs, difference from T = 0: 0.1%
  pH, difference from T = 0: 0.0
pH 2.0, Ambient, 3 h
  % assay/degs, difference from T = 0: 0.3%
  Total degs, difference from T = 0: 0.1%
  pH, difference from T = 0: 0.0
pH 2.0, Ambient, 8 h
  % assay/degs, difference from T = 0: −0.2%
  Total degs, difference from T = 0: 0.2%
  pH, difference from T = 0: 0.0
pH 2.0, Ambient, 24 h
  % assay/degs, difference from T = 0: −0.6%
  Total degs, difference from T = 0: 0.8%
  pH, difference from T = 0: 0.0
pH 2.0, Ambient, 48 h
  % assay/degs, difference from T = 0: −1.8%
  Total degs, difference from T = 0: 1.6%
  pH, difference from T = 0: 0.0
pH 2.0
  % assay/degs: 99.2%
  Total degs: 0.2%
  pH: 2.0
pH 3.5, 2-8° C., 2 h
  % assay/degs, difference from T = 0: 0.6%
  Total degs, difference from T = 0: 0.0%
  pH, difference from T = 0: 0.0
pH 3.5, 2-8° C., 8 h
  % assay/degs, difference from T = 0: 0.3%
  Total degs, difference from T = 0: 0.0%
  pH, difference from T = 0: 0.0
pH 3.5, 2-8° C., 24 h
  % assay/degs, difference from T = 0: 0.7%
  Total degs, difference from T = 0: 0.0%
  pH, difference from T = 0: −0.1
pH 3.5, 2-8° C., 48 h
  % assay/degs, difference from T = 0: 0.5%
  Total degs, difference from T = 0: 0.0%
  pH, difference from T = 0: 0.0
pH 3.5, 2-8° C., 72 h
  % assay/degs, difference from T = 0: 0.7%
  Total degs, difference from T = 0: 0.0%
  pH, difference from T = 0: −0.1
pH 3.5, 2-8° C., 96 h
  % assay/degs, difference from T = 0: 0.2%
  Total degs, difference from T = 0: 0.0%
  pH, difference from T = 0: 0.0
pH 3.5, 2-8° C., 168 h
  % assay/degs, difference from T = 0: 0.6%
  Total degs, difference from T = 0: 0.0%
  pH, difference from T = 0: 0.0
pH 3.5, Ambient, 2 h
  % assay/degs, difference from T = 0: 0.6%
  Total degs, difference from T = 0: 0.0%
  pH, difference from T = 0: 0.0
